Experimental data from patent US10500198B2, “Bis-benzylidine piperidone proteasome inhibitor with anticancer activity” (The Johns Hopkins University, priority 2013, dated 2019).

What was measured:
MM lines = experiment: Cell viability, MM lines; format: cell-based; conditions: antiproliferative effects, 48-hr treatment; read-out: IC50 against MM lines
Protocol: (§1) Cell viability was assayed using CellTiter 960 AQueous One Solution Reagent (Promega, Madison, Wis.). Cells seeded at the concentration of 1,000 cells/well for HeLa, 5,000 cells/well for ES2 and HCT116 and 10,000-20,000 cells/well for other cell lines in 100 μL medium in 96-well plate were treated with RA series compounds at specified concentrations. After the indicated periods, cells were incubated according to the manufacturer's protocol with the MTS labeling mixture for 1-2 hr and absorbance at 490 nm measured using a Benchmark Plus microplate spectrophotometer (BIO-RAD).

HeLa cells = experiment: Drug combination index assay; format: cell-based, human; conditions: 48 hr, read-out: IC50 (single agent, Compusyn)
Protocol: The combination indices and a normalized isobologram were calculated using Compusyn software (www.combosyn.com).

HOK-16B = experiment: Cell viability after 48-hr treatment (Table 1); format: cell-based; conditions: 48-hr treatment; XTT assay; read-out: IC50, HOK-16B
Protocol: as §1

CasKi = experiment: Cell viability after 48-hr treatment (Table 1); format: cell-based; conditions: 48-hr treatment; XTT assay; read-out: IC50, CasKi
Protocol: as §1

HeLa = experiment: Cell viability after 48-hr treatment (Table 1); format: cell-based, human; conditions: 48-hr treatment; XTT assay; read-out: IC50, HeLa
Protocol: (§2) Cell viability was assayed using CellTiter 960 AQueous One Solution Reagent (Promega, Madison, Wis.). Cells seeded at the concentration of 1,000 cells/well for HeLa, 5,000 cells/well for ES2 and HCT116 and 10,000-20,000 cells/well for other cell lines in 100 μL medium in 96-well plate were treated with RA series compounds at specified concentrations. […]

OVCAR3 = experiment: Cell viability after 48-hr treatment (Table 1); format: cell-based, human; conditions: XTT assay
Protocol: as §2

[1] = Tissue levels 48 hr after single i.p. dose; format: in vivo, mouse; conditions: 48 hr after single i.p. dose of 10 mg/kg
Protocol: Tissue was harvested at 48 hr after single-dose intraperitoneal administration in non-tumor bearing mice. Blood was collected by cardiac puncture under anesthesia into heparinized syringes and centrifuged to obtain plasma. Tissues were rapidly dissected and snap frozen in liquid nitrogen. Samples were stored frozen at −70° C. until analysis. […] Tissue homogenates were prepared at a concentration of 200 mg/mL in PBS and further diluted 1:10 in mouse plasma before extraction using acetonitrile containing temazepam (100 ng/mL). Separation was achieved on Waters X-Terra™ C18 (50 mm×2.1 mm i.d., 3 μm) at room temperature using isocratic elution with acetonitrile/water mobile phase (70:30, v/v) containing 0.1% formic acid at a flow rate of 0.2 mL/min. […] Samples were quantitated over the assay range of 10 to 1000 ng/mL or 0.6 to 60 μg/g. […] Cmax and Tmax were the observed values from the mean data. The AUClast was calculated using the log-linear trapezoidal rule to the end of sample collection (AUClast) and extrapolated to infinity (AUC0-∞) by dividing the last quantifiable concentration by the terminal disposition rate constant (λz), which was determined from the slope of the terminal phase of the concentration-time profile. The half-life (T1/2) was determined by dividing 0.693 by λz. Relative bioavailability was calculated as follows: […]

RPN13 Pru domain = target: T1, RPN13 Pru domain (Homo sapiens, UniProt Q16186); experiment: NMR and LC-MS of RA190-exposed RPN13; format: binding; conditions: site-directed mutagenesis, NMR
T1 construct: RPN13 (1-150), which includes its Pru domain; made in house
Protocol: By contrast, RPN13 Pru C^60,80,121.
NMR spectra were acquired at 25° C. or 10° C. on Bruker NMR spectrometers operating at 850 or 900 MHz and equipped with cryogenically cooled probes. Processing was performed in NMRPipe^13 and the resulting spectra visualized with XEASY.^3 Protein concentrations were calculated by extinction coefficients based on amino acid composition and absorbance at 280 nm for protein dissolved in 6 M guanidine-HCl.
RPN13 Pru domain and RA190-exposed RPN13, RPN13 Pru domain, RPN13 Pru C60,80,121A, and RPN13 Pru C88A at protein concentrations of 1 μg/μL were treated with formic acid and injected onto a Nano2D-LC HPLC system (Eksigent, Dublin, Calif.) equipped with an Agilent Zorbax 300SB C8 column (3 mm ID, 10 cm length, 3.5 μm particle size). The samples were subjected to 10 min of incubation in 98% H2O:2% CH3CN, a 20 min linear gradient at 10 μL/min flow rate to 75% H2O:25% CH3CN followed by a 12 min linear gradient to 5% H2O:95% CH3CN and then a 2 min hold. Analysis was conducted by positive ionization electrospray with an LTQ-Orbitrap Velos instrument (Thermo Scientific, Waltham, Mass.) and adducts were quantified utilizing the Orbitrap detector with a resolution of 100,000 at a scan range of 400-2000 m/z.

[2] = Pharmacokinetic measurements, plasma; format: in vivo, mouse; conditions: 20 mg/kg oral, BALB/c mice
NCI-H929 cells = experiment: Active caspase-3 by FACS; format: cell-based, human; conditions: 0.5 μM, 8 h
Protocol: NCI-H929 cells were treated with RA195 (0.5 μM) and Bz(0.5 μM) for the period of 8 h. Cells were stained for PE-conjugated Caspase-3 antibody and measured active caspase-3 by FACS.

T1 sequence (Q16186 1-150): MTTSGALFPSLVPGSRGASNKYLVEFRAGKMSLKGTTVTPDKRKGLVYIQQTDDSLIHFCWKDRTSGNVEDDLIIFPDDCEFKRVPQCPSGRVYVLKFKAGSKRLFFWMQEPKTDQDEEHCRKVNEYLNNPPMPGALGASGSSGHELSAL

SMILES	IC50 (MM lines)	IC50 (HeLa cells)	IC50 (HOK-16B)	IC50 (CasKi)	IC50 (HeLa)	IC50 (OVCAR3)	RA190 detected in brain [1]	RA190 detected in kidney [1]	RA190 detected in liver [1]	RA190 detected in lung [1]	RA190 detected in spleen [1]	site of RA190 ligation (RPN13 Pru domain)	AUC [2]	C1/F [2]	Cmax [2]	T1/2β [2]	Ud/F [2]	active caspase-3 (NCI-H929 cells)
Cl.N[C@@H](Cc1ccccc1)C(=O)N1CC(=Cc2ccc(Cl)c(Cl)c2)C(=O)C(=Cc2ccc(Cl)c(Cl)c2)C1 [RA190, 3,5-bis(3,4-dichlorobenzylidene)-1-(S-2-amino-3-phenyl)-piperidin-4-one-HCl salt]	≤ 100 nM	184 nM	600 nM	300 nM	150 nM	2000 nM	not brain	0.61 µg/g	0.57 µg/g	0.66 µg/g	0.59 µg/g	ligates to RPN13 C88	634 ng·h/mL	527 mL/min/kg	133 ng/mL	2.6 h	117.3 L/kg	
Cl.NCCCC[C@H](NC(=O)OCC1c2ccccc2-c2ccccc21)C(=O)N1C/C(=C\c2ccc(Cl)c(Cl)c2)C(=O)/C(=C/c2ccc(Cl)c(Cl)c2)C1 [RA195]																		caused an increase in caspase-3 expression
